The values below are quoted from earlier work in patent US10729634B2, “Sex hormone-binding globulin for use as a medicament” (FUNDACIÓ HOSPITAL UNIVERSITARI VALL D'HEBRON—INSTITUT DE …, priority 2013, dated 2020).

SMILES strings stand for the structures.

For data set [1] the following is noted: cited from earlier work.
For data set [2], the system named is HepG2 hepatoblastoma cells. The settings on record: positive control, 3 μM; cited from earlier work.

Regarding `C[C@H]1CNCCc2ccc(Cl)cc21` [Lorcaserin], in data set [1] (over a year), the “average weight loss greater than placebo” value is 3.1 kg and the “average weight loss greater than placebo, of body mass” value is given as 3%.

As for `CCCCCCCCCCC[C@@H](C[C@@H]1OC(=O)[C@H]1CCCCCC)OC(=O)[C@H](CC(C)C)NC=O` [orlistat], the side effects entry in data set [1] (in vivo) is “associated with gastrointestinal side effects”. For `CC(C)NCC(O)c1ccc(O)c(O)c1` (stereo not shown) [Isoproterenol], the lipolysis entry in data set [2] is “induces lipolysis”.
